Assays:
Assay type in all cases: in vivo
[1] = test system: Johnsongrass (Sorghum halepense, SORHA); assay: Pre-emerge greenhouse herbicide test, phytotoxicity rating; details: 14 days after application, rating scale 0-100
Outline: (§1)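 Seeds sown in sandy loam one day before track-sprayer application of acetone solutions at 125–1000 g ai/ha (187 l/ha), then surface-watered to incorporate and bottom-watered. Injury scored visually at 14 days on a 0–100 scale (0 no damage, 100 complete death).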

[2] = test system: barnyardgrass (Echinochloa crusgalli, ECHCG); assay: as above; details: 14 days after application, rating scale 0-100
Outline: as §1

[3] = test system: green foxtail (Setaria viridis, SETVI); assay: as above; details: 14 days after application, rating scale 0-100
Outline: as §1

[4] = test system: ivyleaf morningglory (Ipomoea hederacea, IPOHE); assay: as above; details: 14 days after application, rating scale 0-100
Outline: as §1

[5] = test system: lambsquarters (Chenopodium album, CHEAL); assay: as above; details: 14 days after application, rating scale 0-100
Outline: as §1

[6] = test system: large crabgrass (Digitaria sanguinalis, DIGSA); assay: as above; details: 14 days after application, rating scale 0-100
Outline: as §1

[7] = test system: redroot pigweed (Amaranthus retroflexus, AMARE); assay: as above; details: 14 days after application, rating scale 0-100
Outline: as §1

[8] = test system: sicklepod (Cassia obtusifolia, CASOB); assay: as above; details: 14 days after application, rating scale 0-100
Outline: as §1

[9] = test system: velvetleaf (Abutilon theophrasti, ABUTH); assay: as above; details: 14 days after application, rating scale 0-100
Outline: as §1

[10] = test system: field corn (Zea mays L., var. Dekalb 535, CORN); assay: Pre-emerge greenhouse test, crop damage rating; details: 14 days after application, rating scale 0-100
Outline: as §1

[11] = test system: upland rice (Oryza sp., var.Tebonnet, RICE); assay: Pre-emerge greenhouse test, crop damage rating; details: 14 days after application, rating scale 0-100
Outline: as §1

[12] = test system: soybean (Glycine max L., var. Pella 86, SOY); assay: Pre-emerge greenhouse test, crop damage rating; parameters: key to SOY crop damage rating: 0 = no damage, 100 = complete death of all plants; details: 14 days after application, rating scale 0-100
Outline: as §1

[13] = test system: common ragweed (Ambrosia artemisiifolia L., AMBEL); assay: Post-emerge greenhouse herbicide test, phytotoxicity rating; details: 14 days after application, scale 0-100
From the text: A standard greenhouse herbicide activity screening system was used to evaluate the herbicidal efficacy and crop safety of these test compounds. Six broadleaf weed species including redroot pigweed (Amaranthus retroflexus, AMARE), velvetleaf (Abutilon theophrasti, ABUTH), sicklepod (Cassia obtusifolia, CASOB), ivyleaf morningglory (Ipomoea hederacea, IPOHE), lambsquarters (Chenopodium album, CHEAL) and common ragweed (Ambrosia artemisiifolia L., AMBEL) were used as test species. Four grass weed species including green foxtail (Setaria viridis, SETVI), barnyardgrass (Echinochloa crusgalli, ECHCG), Johnsongrass (Sorghum halepense, SORHA), and large crabgrass (Digitaria sanguinalis, DIGSA) were also used. In addition, three crop species, field corn (Zea mays L., var. Dekalb 535, CORN), soybean (Glycine max L., var. Pella 86, SOY), and upland rice (Oryza sp., var.Tebonnet, RICE) were included.
All test compounds were dissolved in acetone and applied to the test units in a volume of 187 l/ha. […] Plants were arranged on a shelf so that the top of the canopy (post-emerge) or top of the soil surface (pre-emerge) was 40-45 cm below the nozzle. Pressurized air was used to force the test solution through the nozzle as it was mechanically advanced (via electrically driven chain drive) over the top of all test plants/pots. This application simulates a typical commercial field herbicide application.
In the post-emerge test, a commercial non-ionic surfactant was also included (0.25% v/v) to enhance wetting of the leaf surfaces Qf target plants at rates ranging from 63 g ai/ha to 1000 g ai/ha. For post-emerge tests, seeds were planted 8-21 days prior to the test to allow emergence and good foliage development prior to application of the test substances. At the time of the post-emerge application, plants of all species were usually at the 2-3 leaf stage of development. Post-emerge test units were always bottom-watered.
At 14 days after application of the test materials, phytotoxicity ratings were recorded. A rating scale of 0-100 was used as previously described in Research Methods in Weed Science, 2nd edition, B. Truelove, Ed., Southern Weed Science Society, Auburn University, Auburn, Ala., 1977. Briefly, “0” corresponds to no damage and “100” corresponds to complete death of all plants in the test unit. This scale was used both to determine efficacy against weed species and damage to crop species. Herbicide activity data for various compounds of this invention, which are shown by compound number in Tables 1-9, are shown in Tables 13 and 14.

[14] = test system: Johnsongrass (Sorghum halepense, SORHA); assay: as above; details: 14 days after application, scale 0-100
Outline: (§2)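 Plants at the 2-3 leaf stage, sown 8-21 days earlier, were track-sprayed post-emergence with compound in acetone plus 0.25% v/v non-ionic surfactant at 63-1000 g ai/ha (187 l/ha). Damage was rated at 14 days on a 0-100 scale (0 none, 100 all plants dead), for both crop injury and weed control.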

[15] = test system: barnyardgrass (Echinochloa crusgalli, ECHCG); assay: as above; details: 14 days after application, scale 0-100
Outline: as §2

[16] = test system: green foxtail (Setaria viridis, SETVI); assay: as above; details: 14 days after application, scale 0-100
Outline: as §2

[17] = test system: ivyleaf morningglory (Ipomoea hederacea, IPOHE); assay: as above; details: 14 days after application, scale 0-100
Outline: as §2

[18] = test system: lambsquarters (Chenopodium album, CHEAL); assay: as above; details: 14 days after application, scale 0-100
Outline: as §2

[19] = test system: large crabgrass (Digitaria sanguinalis, DIGSA); assay: as above; details: 14 days after application, scale 0-100
Outline: as §2

[20] = test system: redroot pigweed (Amaranthus retroflexus, AMARE); assay: as above; details: 14 days after application, scale 0-100
Outline: as §2

[21] = test system: sicklepod (Cassia obtusifolia, CASOB); assay: as above; details: 14 days after application, scale 0-100
Outline: as §2

[22] = test system: velvetleaf (Abutilon theophrasti, ABUTH); assay: as above; details: 14 days after application, scale 0-100
Outline: as §2

[23] = test system: field corn (Zea mays L., var. Dekalb 535, CORN); assay: Post-emerge greenhouse test, crop damage rating; details: 14 days after application, scale 0-100
Outline: as §2

[24] = test system: upland rice (Oryza sp., var.Tebonnet, RICE); assay: Post-emerge greenhouse test, crop damage rating; details: 14 days after application, scale 0-100
Outline: as §2

[25] = test system: soybean (Glycine max L., var. Pella 86, SOY); assay: Post-emerge greenhouse test, crop damage rating; parameters: key to crop damage rating SOY: 0-100 scale: 0 = no damage, 100 = complete death of all plants; details: 14 days after application, scale 0-100
Outline: as §2

SMILES: CCOC(=O)C(C)Oc1ccc(Oc2cc(-n3c(=O)n4n(c3=S)CCCC4)c(F)cc2Cl)c(N)c1 (centres unmarked) [Compound 8-40]
- SORHA phytotoxicity rating ([1]; Rate 125 g al/ha): 0
- SORHA phytotoxicity rating ([1]; Rate 250 g al/ha): 0
- ECHCG phytotoxicity rating ([2]; Rate 125 g al/ha): 0
- ECHCG phytotoxicity rating ([2]; Rate 250 g al/ha): 0
- SETVI phytotoxicity rating ([3]; Rate 125 g al/ha): 0
- SETVI phytotoxicity rating ([3]; Rate 250 g al/ha): 0
- IPOHE phytotoxicity rating ([4]; Rate 125 g al/ha): 0
- IPOHE phytotoxicity rating ([4]; Rate 250 g al/ha): 0
- CHEAL phytotoxicity rating ([5]; Rate 125 g al/ha): 50
- CHEAL phytotoxicity rating ([5]; Rate 250 g al/ha): 100
- DIGSA phytotoxicity rating ([6]; Rate 125 g al/ha): 0
- DIGSA phytotoxicity rating ([6]; Rate 250 g al/ha): 0
- AMARE phytotoxicity rating ([7]; Rate 125 g al/ha): 60
- AMARE phytotoxicity rating ([7]; Rate 250 g al/ha): 100
- CASOB phytotoxicity rating ([8]; Rate 125 g al/ha): 0
- CASOB phytotoxicity rating ([8]; Rate 250 g al/ha): 20
- ABUTH phytotoxicity rating ([9]; Rate 125 g al/ha): 50
- ABUTH phytotoxicity rating ([9]; Rate 250 g al/ha): 30
- CORN crop damage rating ([10]; Rate 125 g al/ha): 0
- CORN crop damage rating ([10]; Rate 250 g al/ha): 0
- RICE crop damage rating ([11]; Rate 125 g al/ha): 0
- RICE crop damage rating ([11]; Rate 250 g al/ha): 0
- SOY crop damage rating ([12]; Rate 125 g al/ha): 0
- SOY crop damage rating ([12]; Rate 250 g al/ha): 0
- phytotoxicity rating AMBEL ([13]; rate 63 g ai/ha): 80
- phytotoxicity rating AMBEL ([13]; rate 250 g ai/ha): 20
- phytotoxicity rating SORHA ([14]; rate 63 g ai/ha): 0
- phytotoxicity rating SORHA ([14]; rate 250 g ai/ha): 0
- phytotoxicity rating ECHCG ([15]; rate 63 g ai/ha): 0
- phytotoxicity rating ECHCG ([15]; rate 250 g ai/ha): 0
- phytotoxicity rating SETVI ([16]; rate 63 g ai/ha): 0
- phytotoxicity rating SETVI ([16]; rate 250 g ai/ha): 10
- phytotoxicity rating IPOHE ([17]; rate 63 g ai/ha): 40
- phytotoxicity rating IPOHE ([17]; rate 250 g ai/ha): 100
- phytotoxicity rating CHEAL ([18]; rate 63 g ai/ha): 60
- phytotoxicity rating CHEAL ([18]; rate 250 g ai/ha): 80
- phytotoxicity rating DIGSA ([19]; rate 63 g ai/ha): 0
- phytotoxicity rating DIGSA ([19]; rate 250 g ai/ha): 0
- phytotoxicity rating AMARE ([20]; rate 63 g ai/ha): 80
- phytotoxicity rating AMARE ([20]; rate 250 g ai/ha): 90
- phytotoxicity rating CASOB ([21]; rate 63 g ai/ha): 0
- phytotoxicity rating CASOB ([21]; rate 250 g ai/ha): 75
- phytotoxicity rating ABUTH ([22]; rate 63 g ai/ha): 100
- phytotoxicity rating ABUTH ([22]; rate 250 g ai/ha): 100
- crop damage rating CORN ([23]; rate 63 g ai/ha): 0
- crop damage rating CORN ([23]; rate 250 g ai/ha): 10
- crop damage rating RICE ([24]; rate 63 g ai/ha): 0
- crop damage rating RICE ([24]; rate 250 g ai/ha): 0
- crop damage rating SOY ([25]; rate 63 g ai/ha): 80
- crop damage rating SOY ([25]; rate 250 g ai/ha): 60
